Entries after “also recorded” stand apart in the source; their conditions may differ.
Molecular target: Bacillus anthracis sortase enzyme (BaSrtA) (Bacillus anthracis, UniProt P0DPQ5)
Assay: biochemical
Conditions: not given

Chain of Bacillus anthracis sortase enzyme (BaSrtA) (P0DPQ5 57-210 limits assumed): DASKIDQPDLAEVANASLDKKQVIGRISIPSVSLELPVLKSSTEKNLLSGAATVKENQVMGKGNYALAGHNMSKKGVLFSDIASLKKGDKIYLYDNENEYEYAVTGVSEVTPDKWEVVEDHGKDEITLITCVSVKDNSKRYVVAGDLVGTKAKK

| SMILES | IC50 [nM] |
| --- | --- |
| CC1=NN(c2ccccc2)C(=S)/C1=C/Nc1c(Br)cc(Br)cc1Br [3–12] | 1700 ± 200 |

Tested on: S. aureus
Assay: S. aureus culture growth in the presence of 500 µM inhibitor
Assay type: cell-based, Staphylococcus aureus
Conditions: vs control cultures in 2.5% DMSO (Fig. 4)

| SMILES | effect on S. aureus growth |
| --- | --- |
| CCSc1c(S)cnn(-c2ccccc2)c1=O [2–9] | do not significantly inhibit S. aureus growth; also recorded: not bactericidal; also recorded: do not impair microbial growth in cell culture |
| CCOc1cnn(-c2cccc(C)c2)c(=O)c1S [2–20] | do not significantly inhibit S. aureus growth; also recorded: not bactericidal |
| CC1=NN(c2ccccc2)C(=S)/C1=C/Nc1ccc(/N=N/c2ccccc2)cc1 [3–9] | do not substantially affect bacterial growth; also recorded: non-bacteriocidal |
| CC1=NN(c2ccccc2)C(=S)/C1=C/Nc1c(Br)cc(Br)cc1Br [3–12] | do not substantially affect bacterial growth; also recorded: no detrimental effect to bacterial viability; also recorded: non-bacteriocidal; also recorded: do not impair microbial growth in cell culture |
| CC1=NN(c2ccccc2)C(=S)/C1=C/Nc1ccccn1 [3–17] | do not substantially affect bacterial growth |
| Cc1ccc(N2C(=O)/C(=C/c3cc([N+](=O)[O-])cc(Br)c3O)SC2=S)c(C)c1 [Compound 1] | toxic |
| COc1c(S)cnn(-c2cccc(Cl)c2)c1=O [Compound 2] | only modestly perturb growth |
| CC1=NN(c2ccccc2)C(=S)/C1=C/Nc1ccc(Br)cc1 [Compound 3-1] | do not substantially affect bacterial growth |
| CC1=NN(c2ccccc2)C(=S)/C1=C/Nc1ccc([N+](=O)[O-])cc1 [Compound 3] | only modestly perturb growth |

— article PMC2888031 (Bioorganic & medicinal chemistry, 2009)
